Measured values: patent publication US7838513B2, “Anti-cancer therapy comprising an H2-blocker, at least one antiinflammatory agent and a cytotoxic agent” (Tiltan Pharma Ltd., priority 2006, dated 2010)
“Also recorded” adds a separate entry of the source.

Legend:
[1] = test system: mouse mammary carcinoma (EMT6/CTX); test: Suppression of subcutaneous EMT6/CTX tumor growth in mice (tumor size); format: in vivo, mice of the CB6F1 strain; settings: 28 days from tumor cell inoculation; i.p.; levamisole 12 mg/Kg, cimetidine 20 mg/Kg; vs control
Procedure: In the following exemplary embodiments of the present invention, different pharmaceutical compositions of the invention were tested in vivo for the purpose of suppression of tumor growth in mice. The control group received a vehicle containing only non-active ingredients which was compared to groups which received pharmaceutical compositions comprising different active ingredients as described in detail below. 3.5×10^5 cells of mouse mammary carcinoma (EMT6/CTX) were injected subcutaneously in to 7-8 week-old mice of the CB6F1 strain (a cross between Balbc and C57bl), in the center of their backs. The mice were then marked and divided into groups. Typically, each group consisted of 7 to 8 mice. The tumor size was measured twice a week and plotted in a graph. […] The width measurement was also used as an indication for tumor height, and the 0.52 is a normalizing factor. Mice were injected with a specified pharmaceutical composition, 6 days a week. Injection volume was 0.05 mL per 10 g body weight (25 g mice received 0.125 mL). All injections were performed intraperitoneally. The week was divided into two treatment types, cytotoxic treatment and non-cytotoxic treatment days according to the corresponding composition. […] 98% of final solution volume was measured and 2% solutol (liquid) was added. […] 98% of final solution volume was measured and 2% solutol (liquid) was added. […]

[2] = test system: tumor growth; settings: Experiments 3 and 4 (FIGS. 3 and 4) in WO03/061566; cited from earlier work
[3] = test system: tumor growth; settings: Example 4 of U.S. Patent Application 20030158118; cited from earlier work

Row | Structure (SMILES) | Effect on tumor growth (tumor size), Example 2, FIG. 2 [1] | Effect of cyclophosphamide alone on tumor growth [2] | Inhibition of tumor growth by Cimetidine by itself [3]
1 | c1ccc([C@H]2CN3CCSC3=N2)cc1 [levamisole] | neither levamisole (Group 2), nor cimetidine (Group 3), nor their combination (Group 4) had any significant effect on tumor growth; also recorded: neither the H2-blocker (cimetidine) alone, nor levamisole alone demonstrated any significant anti-cancer activity | – | –
2 | O=P1(N(CCCl)CCCl)NCCCO1 (stereo not shown) [cyclophosphamide] | – | very moderate effect | –
3 | CN/C(=N/CCSCc1nc[nH]c1C)NC#N [cimetidine] | neither levamisole (Group 2), nor cimetidine (Group 3), nor their combination (Group 4) had any significant effect on tumor growth; also recorded: did not result in any significant effect on tumor growth; also recorded: neither the H2-blocker (cimetidine) alone, nor levamisole alone demonstrated any significant anti-cancer activity | – | did not inhibit tumor growth to any significant amount
